In the assay the target is human PCSK9 (Homo sapiens, UniProt Q8NBP7). Description: PCSK9 ligand binding TR-FRET assay (interference with binding of human PCSK9 to human LDLR). The note with it: for Max % inhibition: PCSK9 FRET assay, efficacy (Amax), 100% = 1 uM unlabeled human PCSK9, 0% = DMSO; for IC50: TR-FRET, human PCSK9 Alexa Fluor 647 / human LDLR extracellular domain-Europium Kryptate, read-out: PCSK9 FRET Assay IC50. Put shortly:
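Threefold compound dilutions were pre-incubated 30 min with PCSK9, after which 4 nM Europium Kryptate-tagged human LDLR ectodomain was added for a further 2 h.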
Background: Time-resolved FRET reads energy transfer from a long-lived donor to a nearby acceptor.

From US20230089867A1, “CYCLIC PENTAMER COMPOUNDS AS PROPROTEIN CONVERTASE SUBTILISIN/KEXIN TYPE 9 (PCSK9) INHIBITORS FOR THE TREATMENT OF METABOLIC DISORDER” (Novartis AG, priority 2018, published 2023) come the findings set out here.

In general, IC50 refers to the concentration that inhibits the measured activity by half.

Sequence of human PCSK9 (Q8NBP7 153-692): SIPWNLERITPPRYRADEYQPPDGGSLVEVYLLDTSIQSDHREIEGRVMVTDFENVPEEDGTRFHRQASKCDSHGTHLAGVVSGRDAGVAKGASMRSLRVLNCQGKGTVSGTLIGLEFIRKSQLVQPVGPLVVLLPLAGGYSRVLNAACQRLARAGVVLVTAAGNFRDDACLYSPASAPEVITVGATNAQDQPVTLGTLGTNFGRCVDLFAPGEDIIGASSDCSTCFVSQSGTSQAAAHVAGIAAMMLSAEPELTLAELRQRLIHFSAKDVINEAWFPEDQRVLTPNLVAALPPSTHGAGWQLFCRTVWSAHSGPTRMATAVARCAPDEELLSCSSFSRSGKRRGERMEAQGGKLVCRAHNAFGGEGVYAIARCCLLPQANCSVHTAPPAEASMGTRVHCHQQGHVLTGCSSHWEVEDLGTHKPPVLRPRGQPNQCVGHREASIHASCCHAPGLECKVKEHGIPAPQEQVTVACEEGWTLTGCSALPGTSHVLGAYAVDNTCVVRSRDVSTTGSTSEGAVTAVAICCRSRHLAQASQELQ
Sequence of human PCSK9 (Q8NBP7 31-152 partner limits assumed): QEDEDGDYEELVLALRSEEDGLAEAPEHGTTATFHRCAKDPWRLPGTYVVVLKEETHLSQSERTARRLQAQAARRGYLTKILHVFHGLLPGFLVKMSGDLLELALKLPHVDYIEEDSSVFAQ

Consider `COC[C@@H]1NC(=O)[C@H](C)N(Cc2ccc(Cl)cc2Oc2ccc(-c3cnc(CN(C)C)n3C)cc2)C(=O)C[C@@H](Cc2ccccc2)C(=O)N(C)C[C@H](C)NC(=O)C[C@H](Cc2ccc(Cl)cc2)N(C)C1=O` [Compound 32, (2S,5S,8S,12S,16R)-16-benzyl-1-(4-chloro-2-(4-(2-((dimethylamino)methyl)-1-methyl-1H-imidazol-5-yl)phenoxy)benzyl)-8-(4-chlorobenzyl)-5-(methoxymethyl)-2,7,12,14-tetramethyl-1,4,7,11,14-pentaazacyclooctadecane-3,6,10,15,18-pentaone], for which the Max % inhibition is reported as 103.15% and the IC50 worked out at 1.8 nM.

`COC[C@@H]1NC(=O)[C@H](C)N(Cc2ccc(Cl)cc2Oc2ccc(-c3cnc(CN(C)C)n3C)cc2)C(=O)C[C@@H](Cc2ccc(F)c(F)c2F)C(=O)N(C)[C@@H](C)CNC(=O)C[C@H](Cc2ccc(Cl)cc2)N(C)C1=O` [Compound 33, (2S,5S,8S,13S,16R)-1-(4-chloro-2-(4-(2-((dimethylamino)methyl)-1-methyl-1H-imidazol-5-yl)phenoxy)benzyl)-8-(4-chlorobenzyl)-5-(methoxymethyl)-2,7,13,14-tetramethyl-16-(2,3,4-trifluorobenzyl)-1,4,7,11,14-pentaazacyclooctadecane-3,6,10,15,18-pentaone]: the Max % inhibition is 95.65% and the IC50 turned out to be 1.3 nM.

For `COC[C@@H]1NC(=O)[C@H](C)N(Cc2c(F)cc(Cl)cc2Oc2ccc(-c3cnc(CN4CCCC4)n3C)cc2)C(=O)C[C@@H](Cc2ccccc2)C(=O)N(C)[C@@H](C)CNC(=O)C[C@H](Cc2ccc(Cl)cc2)N(C)C1=O` [Compound 34, (2S,5S,8S,13S,16R)-16-benzyl-1-(4-chloro-2-fluoro-6-(4-(1-methyl-2-(pyrrolidin-1-ylmethyl)-1H-imidazol-5-yl)phenoxy)benzyl)-8-(4-chlorobenzyl)-5-(methoxymethyl)-2,7,13,14-tetramethyl-1,4,7,11,14-pentaazacyclooctadecane-3,6,10,15,18-pentaone], the Max % inhibition is given as 95.86% and the IC50 was 1 nM.

As to `COC[C@@H]1NC(=O)[C@H](C)N(Cc2ccc(OC(F)(F)F)cc2Oc2ccc(-c3cnc(CN(C)C)n3C)cc2)C(=O)C[C@@H](Cc2ccccc2)C(=O)N(C)[C@@H](C)CNC(=O)C[C@H](Cc2ccc(Cl)cc2)N(C)C1=O` [Compound 35, (2S,5S,8S,13S,16R)-16-benzyl-8-(4-chlorobenzyl)-1-(2-(4-(2-((dimethylamino)methyl)-1-methyl-1H-imidazol-5-yl)phenoxy)-4-(trifluoromethoxy)benzyl)-5-(methoxymethyl)-2,7,13,14-tetramethyl-1,4,7,11,14-pentaazacyclooctadecane-3,6,10,15,18-pentaone], the Max % inhibition was found to be 104.05% and the IC50 was found to be 4.2 nM.

For `COC[C@@H]1NC(=O)[C@H](CC(F)(F)F)N(Cc2ccc(Cl)cc2Oc2ccc(-c3cnc(CN(C)C)n3C)cc2)C(=O)C[C@@H](Cc2ccccc2)C(=O)N(C)[C@@H](C)CNC(=O)C[C@H](Cc2ccc(Cl)cc2)N(C)C1=O` [Compound 37, (2S,5S,8S,13S,16R)-16-benzyl-1-(4-chloro-2-(4-(2-((dimethylamino)methyl)-1-methyl-1H-imidazol-5-yl)phenoxy)benzyl)-8-(4-chlorobenzyl)-5-(methoxymethyl)-7,13,14-trimethyl-2-(2,2,2-trifluoroethyl)-1,4,7,11,14-pentaazacyclooctadecane-3,6,10,15,18-pentaone], the Max % inhibition was 100.65% and the IC50 came to 2.3 nM.

Take `COC[C@@H]1NC(=O)[C@H](CC(=O)N2CCOCC2)N(Cc2ccc(Cl)cc2Oc2ccc(-c3cnc(CN(C)C)n3C)cc2)C(=O)C[C@@H](Cc2ccccc2)C(=O)N(C)[C@@H](C)CNC(=O)C[C@H](Cc2ccc(Cl)cc2)N(C)C1=O` [Compound 38, (2S,5S,8S,13S,16R)-16-benzyl-1-(4-chloro-2-(4-(2-((dimethylamino)methyl)-1-methyl-1H-imidazol-5-yl)phenoxy)benzyl)-8-(4-chlorobenzyl)-5-(methoxymethyl)-7,13,14-trimethyl-2-(2-morpholino-2-oxoethyl)-1,4,7,11,14-pentaazacyclooctadecane-3,6,10,15,18-pentaone]: the Max % inhibition turned out to be 101.48% and the IC50 stood at 2.1 nM.

For the compound `COC[C@@H]1NC(=O)[C@H](C)N(Cc2c(OCC(F)(F)F)cc(Cl)cc2Oc2ccc(-c3cnc(CN(C)C)n3C)cc2)C(=O)CCC(=O)N(C)[C@H]2CCCC[C@@H]2NC(=O)C[C@H](Cc2ccc(Cl)cc2)N(C)C1=O` [Compound 39, (4S,7S,10S,16aS,20aS)-11-(4-chloro-2-(4-(2-((dimethylamino)methyl)-1-methyl-1H-imidazol-5-yl)phenoxy)-6-(2,2,2-trifluoroethoxy)benzyl)-4-(4-chlorobenzyl)-7-(methoxymethyl)-5,10,16-trimethylhexadecahydrobenzo[l][1,4,7,11,14]pentaazacyclooctadecine-2,6,9,12,15(3H)-pentaone], the Max % inhibition is listed as 104.01% and the IC50 was 0.9 nM.

Turning to `CCC(CC)[C@@H]1CC(=O)N(Cc2ccc(Cl)cc2Oc2ccc(-c3cnc(CN(C)C)n3C)cc2)[C@@H](C)C(=O)N[C@@H](COC)C(=O)N(C)[C@@H](Cc2ccc(Cl)cc2)CC(=O)NC[C@H](C)N(C)C1=O` [Compound 40, (2S,5S,8S,13S,16S)-1-(4-chloro-2-(4-(2-((dimethylamino)methyl)-1-methyl-1H-imidazol-5-yl)phenoxy)benzyl)-8-(4-chlorobenzyl)-5-(methoxymethyl)-2,7,13,14-tetramethyl-16-(pentan-3-yl)-1,4,7,11,14-pentaazacyclooctadecane-3,6,10,15,18-pentaone], the Max % inhibition is on record as 104.99% and the IC50 turned out to be 99.6 nM.

For `COC[C@@H]1NC(=O)C(C)N(Cc2c(F)cc(F)cc2Oc2ccc(-c3cnc(CN(C)C)n3C)cc2)C(=O)C[C@@H](Cc2ccccc2)C(=O)N(C)[C@H]2CCCC[C@@H]2NC(=O)C[C@H](Cc2ccc(Cl)cc2)N(C)C1=O` (stereo partly drawn) [Compound 41, (4S,7S,14R,16aS,20aS)-14-benzyl-4-(4-chlorobenzyl)-11-(2-(4-(2-((dimethylamino)methyl)-1-methyl-1H-imidazol-5-yl)phenoxy)-4,6-difluorobenzyl)-7-(methoxymethyl)-5,10,16-trimethylhexadecahydrobenzo[l][1,4,7,11,14]pentaazacyclooctadecine-2,6,9,12,15(3H)-pentaone], the Max % inhibition stood at 84.34% and the IC50 came out at 4.7 nM.

Consider `COC[C@@H]1NC(=O)[C@H](C)N(Cc2ccc(C(F)F)cc2Oc2ccc(-c3cnc(CN(C)C)n3C)cc2)C(=O)C[C@@H](Cc2ccccc2)C(=O)N(C)[C@@H](C)CNC(=O)C[C@H](Cc2ccc(Cl)cc2)N(C)C1=O` [Compound 42, (2S,5S,8S,13S,16R)-16-benzyl-8-(4-chlorobenzyl)-1-(4-(difluoromethyl)-2-(4-(2-((dimethylamino)methyl)-1-methyl-1H-imidazol-5-yl)phenoxy)benzyl)-5-(methoxymethyl)-2,7,13,14-tetramethyl-1,4,7,11,14-pentaazacyclooctadecane-3,6,10,15,18-pentaone], for which the Max % inhibition was 102.18% and the IC50 came to 24.5 nM.

For `COC[C@@H]1NC(=O)[C@H](C)N(Cc2ccc(Cl)cc2Oc2ccc(-c3cnc(CN4CCCC4)n3C)cc2)C(=O)C[C@@H](Cc2ccccc2)C(=O)N(C)[C@@H](CCCCN(C)C)CNC(=O)C[C@H](Cc2ccc(Cl)cc2)N(C)C1=O.Cl` [Compound 43, (2S,5S,8S,13S,16R)-16-benzyl-1-(4-chloro-2-(4-(1-methyl-2-(pyrrolidin-1-ylmethyl)-1H-imidazol-5-yl)phenoxy)benzyl)-8-(4-chlorobenzyl)-13-(4-(dimethylamino)butyl)-5-(methoxymethyl)-2,7,14-trimethyl-1,4,7,11,14-pentaazacyclooctadecane-3,6,10,15,18-pentaone hydrochloride], the Max % inhibition came to 94.38% and the IC50 amounted to 1.8 nM.

As for `COC[C@@H]1NC(=O)[C@H](C)N(Cc2ccc(Cl)cc2Oc2ccc(-c3cnc(CN(C)C)n3C)cc2)C(=O)C[C@@H](Cc2ccc(F)cn2)C(=O)N(C)[C@@H](C)CNC(=O)C[C@H](Cc2ccc(Cl)cc2)N(C)C1=O` [Compound 45, (2S,5S,8S,13S,16R)-1-(4-chloro-2-(4-(2-((dimethylamino)methyl)-1-methyl-1H-imidazol-5-yl)phenoxy)benzyl)-8-(4-chlorobenzyl)-16-((5-fluoropyridin-2-yl)methyl)-5-(methoxymethyl)-2,7,13,14-tetramethyl-1,4,7,11,14-pentaazacyclooctadecane-3,6,10,15,18-pentaone], the Max % inhibition is reported as 95.96% and the IC50 is 2.2 nM.

As for `COC[C@@H]1NC(=O)[C@H](CCC(=O)OC(C)(C)C)N(Cc2ccc(Cl)cc2Oc2ccc(-c3cnc(CN(C)C)n3C)cc2)C(=O)C[C@@H](Cc2ccccc2)C(=O)N(C)[C@H]2CCCC[C@@H]2NC(=O)C[C@H](Cc2ccc(Cl)cc2)N(C)C1=O` [Compound 46, tert-butyl 3-((4S,7S,10S,14R,16aS,20aS)-14-benzyl-11-(4-chloro-2-(4-(2-((dimethylamino)methyl)-1-methyl-1H-imidazol-5-yl)phenoxy)benzyl)-4-(4-chlorobenzyl)-7-(methoxymethyl)-5,16-dimethyl-2,6,9,12,15-pentaoxodocosahydrobenzo[l][1,4,7,11,14]pentaazacyclooctadecin-10-yl]propanoate], the Max % inhibition turned out to be 96.56% and the IC50 turned out to be 2.7 nM.
